# Test results from patent publication US20240270821A1, “GIP/GLP1/GCG TRI-RECEPTOR AGONISTS AND USES THEREOF” (priority 2023, published 2024).
# Marks after values point to notes of the source that are not given here. Starred links: 1 amine or outer side, 2 acyl side, 3 side chain; linkers in the order of their positions; H or OH if unused. Non-standard residues stand in square brackets, D forms with d. Groups on a side chain read outwards from the residue. No end group written: not given here. *: point of attachment. C20 diacid = O=C(O)CCCCCCCCCCCCCCCCCCC(=O)*; C18 diacid = O=C(O)CCCCCCCCCCCCCCCCC(=O)*; αMePhe(2-F) = C[C@](N)(Cc1ccccc1F)C(=O)O; γGlu = O=C(O)[C@H](CCC(=O)[*:2])N[*:1]; NMeY = CN[C@@H](Cc1ccc(O)cc1)C(=O)O; αMeF = C[C@](N)(Cc1ccccc1)C(=O)O; 4Pal = N[C@@H](Cc1ccncc1)C(=O)O; αMeL = CC(C)C[C@](C)(N)C(=O)O; Orn = NCCC[C@H](N)C(=O)O; Dap = NC[C@H](N)C(=O)O; AEEA = NCCOCCOCC(=O)O; Aib = CC(C)(N)C(=O)O
# Key:
# hGIPR [1] = biological target: T1, hGIPR (Homo sapiens, UniProt P48546); test: Functional cAMP activity in the presence of 1% HSA; assay type: cell-based; settings: read-out: cAMP Rel EC50, hGIPR
# T1 sequence (P48546 22-466): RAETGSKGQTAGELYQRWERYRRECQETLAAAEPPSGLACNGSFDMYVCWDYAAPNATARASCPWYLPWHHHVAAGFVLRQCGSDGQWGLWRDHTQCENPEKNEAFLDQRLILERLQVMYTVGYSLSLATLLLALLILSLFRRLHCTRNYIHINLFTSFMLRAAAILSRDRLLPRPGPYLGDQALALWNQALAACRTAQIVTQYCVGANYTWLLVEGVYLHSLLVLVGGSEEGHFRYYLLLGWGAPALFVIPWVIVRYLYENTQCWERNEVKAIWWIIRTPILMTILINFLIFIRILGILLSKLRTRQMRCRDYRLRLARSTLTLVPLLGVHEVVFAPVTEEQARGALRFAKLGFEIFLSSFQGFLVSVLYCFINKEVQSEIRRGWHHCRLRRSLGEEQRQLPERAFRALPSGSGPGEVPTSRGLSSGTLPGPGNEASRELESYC
# hGLP-1R [2] = biological target: T2, hGLP-1R (Homo sapiens, UniProt P43220); test: Functional cAMP activity in the presence of 1% HSA; assay type: cell-based; settings: read-out: cAMP Rel EC50, hGLP-1R
# Target sequence in this assay (P43220 24-463): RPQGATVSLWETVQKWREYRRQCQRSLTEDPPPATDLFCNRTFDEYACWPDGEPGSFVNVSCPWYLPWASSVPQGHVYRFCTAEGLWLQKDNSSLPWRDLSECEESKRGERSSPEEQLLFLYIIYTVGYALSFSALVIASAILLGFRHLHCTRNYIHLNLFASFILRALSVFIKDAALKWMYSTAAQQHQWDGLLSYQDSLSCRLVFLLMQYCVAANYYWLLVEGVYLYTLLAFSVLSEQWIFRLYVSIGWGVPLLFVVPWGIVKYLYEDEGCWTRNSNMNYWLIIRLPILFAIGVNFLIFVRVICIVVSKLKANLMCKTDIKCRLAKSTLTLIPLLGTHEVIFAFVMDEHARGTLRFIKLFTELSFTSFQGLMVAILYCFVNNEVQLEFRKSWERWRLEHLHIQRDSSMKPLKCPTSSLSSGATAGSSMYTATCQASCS
# human GcgR = human GcgR (Homo sapiens, UniProt P47871); test: Functional cAMP activity in the presence of 1% HSA; assay type: cell-based; settings: read-out: cAMP Rel EC50, hGcgR
# human GcgR, sequence (P47871 26-477): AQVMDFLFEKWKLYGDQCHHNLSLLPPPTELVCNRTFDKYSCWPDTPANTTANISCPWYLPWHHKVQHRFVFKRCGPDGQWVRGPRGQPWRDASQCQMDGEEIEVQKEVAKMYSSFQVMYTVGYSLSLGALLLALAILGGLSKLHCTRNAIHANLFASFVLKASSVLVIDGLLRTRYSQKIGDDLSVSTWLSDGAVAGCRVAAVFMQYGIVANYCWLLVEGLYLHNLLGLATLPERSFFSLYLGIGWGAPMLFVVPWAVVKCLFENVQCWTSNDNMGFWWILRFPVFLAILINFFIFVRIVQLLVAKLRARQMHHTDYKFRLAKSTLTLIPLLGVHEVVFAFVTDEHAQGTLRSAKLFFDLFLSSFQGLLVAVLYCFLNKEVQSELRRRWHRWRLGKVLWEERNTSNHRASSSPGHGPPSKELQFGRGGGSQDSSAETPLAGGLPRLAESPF
# hGIPR [3] = biological target: T1, hGIPR; test: Functional cAMP activation in the presence of 0.1% casein (no HSA); assay type: cell-based; settings: in the presence of 0.1% casein (no HSA); geometric mean; read-out: Relative cAMP EC50, hGIPR;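 for Relative cAMP EC50, hGIPR: intracellular cAMP rise after 30 min at 37 °C read by HTRF against a standard curve, scaled between buffer alone (0%) and top control ligand concentration (100%), four-parameter fit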;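 for Relative cAMP EC50, hGLP-1R: intracellular cAMP rise after 30 min at 37 °C read by HTRF, normalized between buffer only (0%) and maximal control ligand (100%), four-parameter variable-slope fit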;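 for Relative cAMP EC50, hGcgR: intracellular cAMP rise after 30 min at 37 °C, read by HTRF against a cAMP standard curve, scaled from buffer only (0%) to maximal control ligand response (100%)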
# hGLP-1R [4] = biological target: T2, hGLP-1R; test: as above; assay type: cell-based; settings: in the presence of 0.1% casein (no HSA); geometric mean; read-out: Relative cAMP EC50, hGLP-1R
# Target sequence in this assay (P43220 24-463): as the sequence (P43220 24-463) above
# hGcgR = hGcgR (Homo sapiens, UniProt P47871); test: as above; assay type: cell-based; settings: in the presence of 0.1% casein (no HSA); geometric mean; read-out: Relative cAMP EC50, hGcgR;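 note: intracellular cAMP rise after 30 min at 37 °C, read by HTRF against a cAMP standard curve, scaled from buffer only (0%) to maximal control ligand response (100%)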
# hGcgR, sequence (P47871 26-477): as the sequence (P47871 26-477) above
# [5] = Body weight in diet-induced obese C57BL/6 mice; assay type: in vivo; settings: percent of starting weight, DIO mice, mean ± SEM n=5
# Procedure: To investigate the effect of the polypeptides as described herein on weight loss, exemplary polypeptides are dosed to C57BL/6 diet-induced obese (DIO) mice. Specifically, DIO male C57BL/6 mice (Taconic, Germantown, NY) maintained on a calorie-rich diet are used in the following studies. Mice are individually housed in a temperature-controlled (24° C.) facility with 12-hour light/dark cycle (lights on 22:00) and free access to food (TD95217) and water. After a minimum of 2 weeks acclimation to the facility, the mice are randomized according to their body weight, so each experimental group of animals would have similar starting body weight. The body weights range from 41 to 50 g. All groups contain 5 mice. […] Treatments are administered by subcutaneous (SC) injection (10 mL/kg) to ad libitum fed DIO mice 30 to 90 minutes prior to the onset of the dark cycle either once daily (QD) or once every 3 days (Q3D) for 9-16 days. Body weight and food intake are measured daily throughout the study. Body weight is presented as percent of the starting weight. […] Data are presented as mean±SEM of 5 animals per group in Table 7 below. Statistical analysis is performed using repeated measures ANOVA, followed by Dunnett's method comparison test.
# human GLP1-R = human GLP1-R (Homo sapiens, UniProt P43220); test: GLP1-R internalization assay in HEK293 cells; assay type: cell-based; settings: for EC50: HEK293 cells expressing SNAP-GLP-1R, read-out: GLP1R Internalization EC50; for Internalization % TOP: normalized to maximum concentration of GLP-1 (100%)
# human GLP1-R, sequence (P43220 24-463): as the sequence (P43220 24-463) above
# [6] = test system: Intestinal organoid from Göttingen minipig jejunum tissue, 2D monolayer; test: Cell based in vitro permeability (Papp) assay; assay type: in vitro ADME
# Summary of the method: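 2D monolayers derived from Göttingen minipig jejunal organoids on transwell inserts. Basal samples collected at 20 min in the presence of C10. Peptide in apical and basal compartments quantified by LC/MS to give Papp.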
# hGLP-1R [7] = biological target: T2, hGLP-1R; test: GLP-1R CHO cell β-arrestin recruitment assay; assay type: cell-based; design: host or cells: CHO-K1 (PathHunter, assay-ready frozen cells); settings: for EC50: CHO-K1 PathHunter, β-arrestin-2, 0.1% casein, read-out: hGLP1R β-arrestin Rel EC50; for % Stimulation Max: normalized to GLP-1(7-36) as maximum control;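 for all read-outs here: luminescence read after 90 min peptide exposure at 37 °C and a further 60 min with detection reagent at room temperature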
# Target sequence in this assay (P43220 24-463): as above
# Target sequence in this assay (P32121 whole entry partner): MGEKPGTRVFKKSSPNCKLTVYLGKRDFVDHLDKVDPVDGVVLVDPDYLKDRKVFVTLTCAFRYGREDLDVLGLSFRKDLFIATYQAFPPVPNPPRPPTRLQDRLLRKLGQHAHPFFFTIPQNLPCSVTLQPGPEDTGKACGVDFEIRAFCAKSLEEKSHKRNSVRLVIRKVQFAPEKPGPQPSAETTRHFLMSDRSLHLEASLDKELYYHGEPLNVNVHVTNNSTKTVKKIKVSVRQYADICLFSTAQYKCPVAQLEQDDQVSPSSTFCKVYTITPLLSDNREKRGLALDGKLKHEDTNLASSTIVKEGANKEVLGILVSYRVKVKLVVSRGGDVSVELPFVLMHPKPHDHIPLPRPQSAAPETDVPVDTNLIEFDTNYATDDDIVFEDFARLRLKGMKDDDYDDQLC
# Procedure: CHO-KI cells expressing Pro-Link-tagged Human GLP-1R and enzyme-acceptor-tagged β-arrestin-2 may be obtained from DiscoveRx and prepared as assay-ready frozen cells. Test peptides are solubilized in DMSO and serial dilutions are performed using the Echo acoustic dispenser (LabCyte). Assay media is the PathHunter Cell Assay Buffer (DiscoveRx) containing 0.1% w/v hydrolyzed Casein (Sigma). […] Plates are incubated for 90 minutes in a 37′C/5% C02 incubator and 10 μl of PathHunter detection reagent is added (DiscoveRx) and plates are incubated at room temperature for 60 minutes. Luminescence signal is measured. Peptide concentration-response curves fit to a four-parameter logistic model to calculate potency as an EC50.
Molecule,EC50 (hGIPR [1]) [nM],EC50 (hGLP-1R [2]) [nM],EC50 (human GcgR) [nM],EC50 (hGIPR [3]) [nM],EC50 (hGLP-1R [4]) [nM],EC50 (hGcgR) [nM],"Body weight (%) ([5]; 10 nmol/kg SC Q3D, 14 days)",EC50 (human GLP1-R) [nM],Internalization % TOP (human GLP1-R) [%],Relative Papp (Compared to internal standard) [6],EC50 (hGLP-1R [7]) [nM],% Stimulation Max (hGLP-1R [7]) [%],"Body weight (%) ([5]; 10 nmol/kg SC QD, 16 days)"
Y[Aib]QGTFTSDFS[Orn][αMeL]LDKK([AEEA-γGlu-C18 diacid])AQ[Aib]AFIEYLLEGGPSSGAPPPGGS-NH2 [Example 62],31.2,299,396,0.146,2.72,3.96,88.05 +/− 1.08*** %,40.3,44.9,0.03,,,
H-Y[Aib]QGTFTSDFS[Orn][αMeL]LDKK([AEEA-γGlu-C18 diacid])AQ[Aib]AFIEYLLAGGPSSGEPPPSGS-NH2 [Example 94],21.4,480,1220,0.154,2.63,8.16,84.92 +/− 1.79**** %,37.1,47.2,0.02,,,
H-Y[Aib]QGTFTSDFSI[αMeL]LDKK([AEEA-γGlu-C20 diacid])AQ[Aib]AFIEYLLEGGPSSGEPPPSEG-NH2 [Example 288],59.1,616,3580,0.234,1.89,5.17,86.18 ± 0.67 %,30.3,72.4,,16.3,18,
H-Y[Aib]QGTFTSDFS[Orn][αMeL]LDKK([AEEA-γGlu-C18 diacid])AQ[Aib]AFIEWLLEGGPSSGAPPPEGS-NH2 [Example 121],24.6,348,442,0.172,2.38,4.89,85.58 +/− 3.20**** %,38.1,46.3,0.08,,,
H-H[Aib]QGT[αMePhe(2-F)]TSDYSILLDKK([AEEA-γGlu-C20 diacid])AA[Aib]AFIEYLIETGPSSGEPPPSEG-NH2 [Example 290],53.4,90,878,0.43,0.34,2.68,,,,,3.94,83.5,65.40 ± 3.45
H-[NMeY][Aib]QGT[αMeF]TSDYSSLLDKIAAK([AEEA-AEEA-γGlu-C20 diacid])AFIEYLLEGGPSSGEPPPSEG-NH2 [Example 297],325,1130,2320,0.626,2.96,3.26,,,,,60.2,33.5,48.42 ± 2.86
H-Y[Aib]QGTFTSDFSK[αMeL]LDKK([AEEA-γGlu-C20 diacid])AQ[Aib]AFIEYLLAGGPSSGEPPPSEE-NH2 [Example 4],62.3,869,1580,0.192,1.66,3.2,83.00 +/− 0.88**** %,49.1,67.8,,23.2,15.8,
H-Y[Aib]QGTFTSDFS[Orn][αMeL]LDKK([AEEA-AEEA-γGlu-C18 diacid])AQ[Aib]AFIEYLLE[Aib]GPSSGAPPPSGS-NH2 [Example 75],16.8,878,1040,0.0578,4.4,4.51,96.28 +/− 1.51%,61.8,51.9,,,,
Y[Aib]QGTFTSDFS[Orn][αMeL]LDKK([AEEA-γGlu-C18 diacid])AQ[Aib]AFIEYLLAGGPSSGEPPPEGE-NH2 [Example 98],33.8,660,867,0.179,4.35,6.91,90.78 +/− 1.26* %,56,49.3,,,,
H-Y[Aib]QGTFTSDYSK[αMeL]LDKK([AEEA-γGlu-C20 diacid])AQQAFVQWLIEGGPSSGEPPPSEG-NH2 [Example 315],85.1,140,1560,0.398,0.508,4.05,79.76 +/− 1.72**** %,,,,3.76,29.7,
H-Y[Aib]QGTFTSDFS[Dap][αMeL]LDKK([AEEA-γGlu-C18 diacid])AQ[Aib]AFIEYLLE[Aib]GPSSGAPPPSGS-NH2 [Example 134],38.3,549,1200,0.152,3.36,7.28,93.28 +/− 1.38%,67.9,22.3,0.07,,,
H-Y[Aib]QGTFTSD[4Pal]SR[αMeL]LDKK([AEEA-γGlu-C18 diacid])AQ[Aib]AFIEYLLE[Aib]GESSGAPPPSGS-NH2 [Example 132],25.9,823,632,0.21,5.72,2.63,98.66 +/− 0.47%,72.7,67.2,,,,
CC[C@H](C)[C@H](NC(=O)[C@H](Cc1ccccc1)NC(=O)[C@H](C)NC(=O)C(C)(C)NC(=O)[C@H](CCC(N)=O)NC(=O)[C@H](C)NC(=O)[C@H](CCCCNC(=O)COCCOCCNC(=O)CC[C@H](NC(=O)CCCCCCCCCCCCCCCCCCC(=O)O)C(=O)O)NC(=O)[C@H](CCCCN)NC(=O)[C@H](CC(=O)O)NC(=O)[C@H](CC(C)C)NC(=O)[C@](C)(CC(C)C)NC(=O)[C@H](CCCN)NC(=O)[C@H](CO)NC(=O)[C@H](Cc1ccccc1)NC(=O)[C@H](CC(=O)O)NC(=O)[C@H](CO)NC(=O)[C@@H](NC(=O)[C@H](Cc1ccccc1)NC(=O)[C@@H](NC(=O)CNC(=O)[C@H](CCC(N)=O)NC(=O)C(C)(C)NC(=O)[C@@H](N)Cc1ccc(O)cc1)[C@@H](C)O)[C@@H](C)O)C(=O)N[C@@H](CCC(=O)O)C(=O)N[C@@H](Cc1ccc(O)cc1)C(=O)N[C@@H](CC(C)C)C(=O)N[C@@H](CC(C)C)C(=O)N[C@@H](C)C(=O)NCC(=O)NCC(=O)N1CCC[C@H]1C(=O)N[C@@H](CO)C(=O)N[C@@H](CO)C(=O)NCC(=O)N[C@@H](CCC(=O)O)C(=O)N1CCC[C@H]1C(=O)N1CCC[C@H]1C(=O)N1CCC[C@H]1C(=O)N[C@@H](CO)C(=O)N[C@@H](CCC(=O)O)C(=O)NCC(N)=O [Example 29],70.1,493,1350,0.35,3.56,11.1,75.96 +/− 3.77**** %,129,57,,,,
H-Y[Aib]QGTFTSDFS[Orn][αMeL]LDKK([AEEA-γGlu-C18 diacid])AQ[Aib]AFIEWLLEGGHSSGAPPPEGS-NH2 [Example 126],40.3,838,1120,0.264,3.97,6.81,95.68 +/− 0.90%,63.2,38.8,,,,
